Source: the supplement of paper PMC6965134
± gives the standard deviation of the averaged measurements.

Test: TIMS collisional cross section (CCS, N2) of the lipid ion; higher = larger ion cross section
Settings: ionization mode: positive, one isomer drawn

## CC/C=C\C/C=C\C/C=C\C/C=C\C/C=C\C/C=C\CCC(=O)O[C@H](COC(=O)CCCCCCCCCCCCCC)COP(=O)([O-])OCC[N+](C)(C)C [PC 15:0_22:6] (ion (formula + adduct): [C45H78NO8P+H] 1+)
Sample type: Liver
  TIMS collisional cross section: 288 Å²

## CCCCC/C=C\CCCCCCCC(=O)OC[C@H](COP(=O)([O-])OCC[N+](C)(C)C)OC(=O)CCCCCCC/C=C\CCCCCC [PC 15:1_16:1@] (ion (formula + adduct): [C39H74NO8P+H] 1+)
Sample type: HeLa
  TIMS collisional cross section: 272.8 Å²

## CCCCC/C=C\C/C=C\C/C=C\C/C=C\CCCCCC(=O)O[C@H](COC(=O)CCCCCCC/C=C\CCCCC)COP(=O)([O-])OCC[N+](C)(C)C [PC 15:1_22:4] (ion (formula + adduct): [C45H80NO8P+H] 1+)
Sample type: HeLa
  TIMS collisional cross section: 290.2 Å²

## CC/C=C\C/C=C\C/C=C\C/C=C\C/C=C\C/C=C\CCC(=O)O[C@H](COC(=O)CCCCCCC/C=C\CCCCC)COP(=O)([O-])OCC[N+](C)(C)C [PC 15:1_22:6] (ion (formula + adduct): [C45H76NO8P+H] 1+)
Sample type: plasma
  TIMS collisional cross section: 289.8 Å²

## CCCCCC/C=C\CCCCCCCC(=O)O[C@H](COC(=O)CCCCCCCCCCCCCCC)COP(=O)([O-])OCC[N+](C)(C)C [PC 16:0@_16:1] (ion (formula + adduct): [C40H78NO8P+H] 1+)
Sample type: HeLa
  TIMS collisional cross section: 281.7 Å²
Sample type: plasma
  TIMS collisional cross section: 282.2 Å²

## CCCCCCCC/C=C\CCCCCCCC(=O)O[C@H](COC(=O)CCCCCCCCCCCCCCC)COP(=O)([O-])OCC[N+](C)(C)C [PC 16:0@_18:1] (ion (formula + adduct): [C42H82NO8P+H] 1+)
Sample type: HeLa
  TIMS collisional cross section: 289.15 ± 0.49 Å²
Sample type: Liver
  TIMS collisional cross section: 287.6 Å²
Sample type: plasma
  TIMS collisional cross section: 288.2 Å²

## CCCCC/C=C\C=C\CCCCCCCCC(=O)O[C@H](COC(=O)CCCCCCCCCCCCCCC)COP(=O)([O-])OCC[N+](C)(C)C [PC 16:0@_18:2] (ion (formula + adduct): [C42H80NO8P+H] 1+)
Sample type: Liver
  TIMS collisional cross section: 283.5 Å²
Sample type: plasma
  TIMS collisional cross section: 284.9 Å²

## CCCCCCCC/C=C\C/C=C\C/C=C\CCCC(=O)O[C@H](COC(=O)CCCCCCCCCCCCCCC)COP(=O)([O-])OCC[N+](C)(C)C [PC 16:0@_20:3] (ion (formula + adduct): [C44H82NO8P+H] 1+)
Sample type: Liver
  TIMS collisional cross section: 289.8 Å²

## CC/C=C\C/C=C\C/C=C\C/C=C\C/C=C\CCCC(=O)O[C@H](COC(=O)CCCCCCCCCCCCCCC)COP(=O)([O-])OCC[N+](C)(C)C [PC 16:0@_20:5] (ion (formula + adduct): [C44H78NO8P+H] 1+)
Sample type: plasma
  TIMS collisional cross section: 290.6 Å²

## CCCCC/C=C\C/C=C\C/C=C\C/C=C\CCCCCC(=O)O[C@H](COC(=O)CCCCCCCCCCCCCCC)COP(=O)([O-])OCC[N+](C)(C)C [PC 16:0@_22:4] (ion (formula + adduct): [C46H84NO8P+H] 1+)
Sample type: HeLa
  TIMS collisional cross section: 294.9 Å²

## CCCCC/C=C\C/C=C\C/C=C\C/C=C\C/C=C\CCC(=O)O[C@H](COC(=O)CCCCCCCCCCCCCCC)COP(=O)([O-])OCC[N+](C)(C)C [PC 16:0@_22:5] (ion (formula + adduct): [C46H82NO8P+H] 1+)
Sample type: Liver
  TIMS collisional cross section: 293.8 Å²

## CCCCCCCCCCCCCCCC(=O)OC[C@H](COP(=O)([O-])OCC[N+](C)(C)C)OC(=O)CCCCCCCCCCCCCCC [PC 16:0_16:0] (ion (formula + adduct): [C40H80NO8P+H] 1+)
Sample type: HeLa
  TIMS collisional cross section: 286.1 Å²
Sample type: Liver
  TIMS collisional cross section: 285.5 Å²
Sample type: plasma
  TIMS collisional cross section: 285.7 ± 0.42 Å²

## CCCCCC/C=C\CCCCCCCC(=O)O[C@H](COC(=O)CCCCCCCCCCCCCCC)COP(=O)([O-])OCC[N+](C)(C)C [PC 16:0_16:1@] (ion (formula + adduct): [C40H78NO8P+H] 1+)
Sample type: HeLa
  TIMS collisional cross section: 282 Å²
